Data reported in the supplement of paper PMC10307832.

How the values were obtained:
Experiment in all cases: relative viability (nuclei count vs DMSO), 5 days (fraction); higher = more cells survive
Irinotecan + Foretinib = compound: CCc1c2c(nc3ccc(OC(=O)N4CCC(N5CCCCC5)CC4)cc13)-c1cc3c(c(=O)n1C2)COC(=O)[C@]3(O)CC [Irinotecan] + COc1cc2c(Oc3ccc(NC(=O)C4(C(=O)Nc5ccc(F)cc5)CC4)cc3F)ccnc2cc1OCCCN1CCOCC1 [Foretinib] (partner 0.25 µM)
Summary of the method: (§1)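 Medians of duplicate plates are given as relative viability. That measure is the nuclei count in treated wells divided by the count in vehicle wells. Counts were taken on 4× images of lung cancer cell lines in 1536-well plates, 5 days after pin-tool dosing the day after seeding with one drug alone or a fixed anchor-drug dose plus five library-drug doses (not always all listed) in √10 steps.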

MK-8033 + Pemetrexed = compound: Cn1cc(-c2cnc3ccc4ccc(CS(=O)(=O)NCc5ccccn5)cc4c(=O)c3c2)cn1 [MK-8033] + Nc1nc2[nH]cc(CCc3ccc(C(=O)N[C@@H](CCC(=O)O)C(=O)O)cc3)c2c(=O)[nH]1 [Pemetrexed] (partner 0.2 µM)
Summary of the method: as §1

Irinotecan + Luminespib = compound: CCc1c2c(nc3ccc(OC(=O)N4CCC(N5CCCCC5)CC4)cc13)-c1cc3c(c(=O)n1C2)COC(=O)[C@]3(O)CC [Irinotecan] + CCNC(=O)c1noc(-c2cc(C(C)C)c(O)cc2O)c1-c1ccc(CN2CCOCC2)cc1 [Luminespib] (partner 0.01 µM)
Summary of the method: as §1

MK-8033 + OSI-027 = compound: Cn1cc(-c2cnc3ccc4ccc(CS(=O)(=O)NCc5ccccn5)cc4c(=O)c3c2)cn1 [MK-8033] + COc1cccc2cc(-c3nc([C@H]4CC[C@H](C(=O)O)CC4)n4ncnc(N)c34)[nH]c12 [OSI-027] (partner 0.5 µM)
Summary of the method: as §1

Cell Line: UMC-11
- relative viability (Irinotecan + Foretinib; first compound 0.6325 µM): 0.704
- relative viability (Irinotecan + Foretinib; first compound 2 µM): 0.518
- relative viability (Irinotecan + Foretinib; first compound 6.325 µM): 0.337
- relative viability (Irinotecan + Foretinib; first compound 20 µM): 0.237
- relative viability (MK-8033 + Pemetrexed; first compound 0.02 µM): 0.801
- relative viability (MK-8033 + Pemetrexed; first compound 0.06325 µM): 0.75
- relative viability (MK-8033 + Pemetrexed; first compound 0.2 µM): 0.66
- relative viability (MK-8033 + Pemetrexed; first compound 0.6325 µM): 0.815
- relative viability (MK-8033 + Pemetrexed; first compound 2 µM): 0.683
- relative viability (Irinotecan + Luminespib; first compound 0.6325 µM): 0.569
- relative viability (Irinotecan + Luminespib; first compound 2 µM): 0.491
- relative viability (Irinotecan + Luminespib; first compound 6.325 µM): 0.383
- relative viability (Irinotecan + Luminespib; first compound 20 µM): 0.192
- relative viability (MK-8033 + OSI-027; first compound 0.02 µM): 0.483
- relative viability (MK-8033 + OSI-027; first compound 0.06325 µM): 0.447
- relative viability (MK-8033 + OSI-027; first compound 0.2 µM): 0.381
- relative viability (MK-8033 + OSI-027; first compound 2 µM): 0.457
